Reference: patent US9694040B2, “Hydrogenation of cannabis oil” (priority 2015, dated 2017)

System: U87 (Human glioblastoma)
Assay: U87 glioblastoma subcutaneous xenograft tumor growth, excised tumor weight
Type: in vivo
Settings: for effect on tumor weight versus untreated vehicle: female athymic mice with U87 implants, 10 mg/kg body weight fed, compared with Vehicle 73.8 mg; for Tumor weight: female athymic mice, subcutaneous U87 implants (two per mouse), fed 10 mg/kg body weight, tumors excised and weighed at termination (about one week of treatment), average of six tumors, Vehicle 73.8 mg
Description: The effect of the hydrogenated and non-hydrogenated cannabis oil on tumor growth and angiogenesis were evaluated by implanting U87 (Human glioblastoma) 3×10^6 cells (50% matrigel) in […] female athymic mice. The site of implantation was subcutaneous with two implants per mouse. The date of implantation was Feb. 1, 2016 and the date of administering treatment was Feburary 3, 2016. There were three mice in each of the following groups, and the treatment consisted of feeding each of the three mice 10 mg/kg body weight of the treatment corresponding to each one of the following groups: • 1. Untreated Vehicle • 2. THCA • 3. CBDA • 4. HCBDA • 5. HTHCA
The termination date was Feb. 11, 2016. On this date, the tumors were excised and weighed. The results are shown in Table 1 and illustrated in the below plot.
It was assumed that the excised tumor weight for the “Untreated Vehicle” was essentially equivalent to its starting tumor weight.

**Q.** Which “effect on tumor weight versus untreated vehicle” value does the source give for `CCCCCc1cc2c(c(O)c1C(=O)O)[C@@H]1CC(C)CC[C@H]1C(C)(C)O2` (some centres unmarked) [HTHCA, hydrogenated 9-tetrahydrocannabinoic acid] here?
**A.** effective to reduce tumor weight

**Q.** What about the “Tumor weight” value of the same molecule?
**A.** 44.5 mg

**Q.** Which “effect on tumor weight versus untreated vehicle” value does the source give for `C=C(C)[C@@H]1CCC(C)=C[C@H]1c1c(O)cc(CCCCC)c(C(=O)O)c1O` [CBDA, Δ-9-cannabidiolic acid] here?
**A.** effective to reduce tumor weight

**Q.** What about the “Tumor weight” value of the same molecule?
**A.** 39.1 mg

**Q.** Which “effect on tumor weight versus untreated vehicle” value does the source give for `CCCCCc1cc2c(c(O)c1C(=O)O)[C@@H]1C=C(C)CC[C@H]1C(C)(C)O2` [THCA, Δ-9-tetrahydrocannabinoic acid] here?
**A.** effective to reduce tumor weight

**Q.** And the “Tumor weight” value?
**A.** 46.0 mg

**Q.** How did the “effect on tumor weight versus untreated vehicle” value turn out when `CCCCCc1cc(O)c([C@@H]2CC(C)CC[C@H]2C(C)C)c(O)c1C(=O)O` (some centres unmarked) [HCBDA, hydrogenated 9-cannabidioc acid] was run?
**A.** effective to reduce tumor weight

**Q.** And the “Tumor weight” value?
**A.** 32.6 mg
